Test results reported in patent US20200337337A1, “ANIMAL FEED COMPOSITIONS COMPRISING MURAMIDASE AND USES THEREOF” (DSM IP ASSETS B.V., priority 2017, published 2020).
Marks after values point to notes of the source that are not given here.

System: male broiler chickens (Cobb 500)
Assay: Experiment in vivo 1: apparent ileal digestibility of crude protein, fat and energy
Conditions: supplemented feed: B Zn-Bacitracin 50 mg/kg; C Muramidase 40 000 U/g; Cobb 500 broilers
Description: Day-old male broiler chickens (Cobb 500) were supplied by a commercial hatchery (Joseph Grelier S. A., Elevage avicole de la Bohadière, F-49290 Saint-Laurent de la Plaine, France).
On the day of arrival (day 1), the chickens were divided by weight into groups of 18 birds. Each group was placed in one floor-pen littered with wood shavings and allocated to one of the different treatments.
Each treatment was replicated with 12 groups. The chickens were housed in an environmentally controlled room. The room temperature was adapted to the age of the birds. In the first few days an additional infra-red electric heating lamp was placed in each pen. Moreover, in the first week feed was offered to the birds as crumbled pellets, afterwards as pelleted feed. The birds had free access to feed and water.
The experimental diets (Starter and Grower) were based on soybean meal, wheat and rye (12%) as main ingredients (Table 2). The diets were formulated to contain 210 g crude protein and 12.5 MJ/kg MEN for the starter period and 190 g crude protein and 12.9 MJ/kg MEN for the grower period.
The diets were fed either unsupplemented (negative control) or supplemented with Muramidase and Zn-Bacitracin as follows:
Appropriate amount of the solid product (Zn-Bacitracin) was mixed with a small quantity of the basal feed as a premix which was then added to the feed to get the final concentration, according to the treatments. After mixing the feed was pelleted (3×25 mm) at about 70° C.
Appropriate amount of the liquid preparations of Muramidase was diluted in water and sprayed onto the respective pelleted feed to get the final concentrations in the feed corresponding to the different treatments. For procedural balance of all treatments the same volume of water were also sprayed onto the pellets of the control diets. […]
Energy determinations were performed using an IKA®-Werke calorimeter (C 2000 basic). TiO2 concentration in feed and digesta were determined by Induction Coupled Plasma (ICP) according to DIN EN ISO 11885:1997 (DIN EN ISO 1998) after H2SO4/Na2SO4 mineralization. […]

Zn-Bacitracin
Apparent ileal digestibility Energy (%): 90.1^a %
Apparent ileal digestibility Fat (%): 82.2^a %
Apparent ileal digestibility Protein (%): 76.3^a %
